61 molecules from a melting point compilation (Tetko et al.; mined from patent text by program, amines drawn as free bases though some values may be those of a salt) can be followed below.

As a reminder, the melting point is the temperature, or range, at which the solid turns liquid. `CS(=O)(=O)Nc1cc2c(cc1Oc1ccccc1)C(=O)C(Br)(Br)CO2` displayed a melting point of 169 to 170 °C.

Regarding `CNC(=O)[C@@H]1CCCN1S(=O)(=O)c1ccc(Cl)c(COc2cccc3c2NC(C)(C)C=C3n2cncn2)c1Cl`, the melting point was found to be 131 °C. `C=CC(=N)NS(N)(=O)=O` displayed a melting point of 72 to 75 °C. On to `O=C(NCc1ccccc1)c1ccnc(NC(=O)c2cccs2)c1`, for which the melting point lay in the range of 160 to 162 °C. Then `CCCCCCN(C(=O)C(C)C)c1sc(CC)cc1C(=O)O`, with 98 to 101 °C; and `COc1ccc(-c2c(Cl)c(CN3CCCC3)nc3sc4c(c23)CCN(Cc2ccccc2)C4)cc1OC`, with 157 to 158 °C; and `O=C1NC(=O)C(c2c[nH]c3ccccc23)C1C(=O)c1cn2c3c(cccc13)CCC2` (stereo unspecified), with 283 to 285 °C. `O=C(Cn1ccnc1)Nc1cccc2nc(N[C@@H]3CCc4ccccc43)ccc12`: the melting point was 226 °C. As for `COc1ccc2ccccc2c1C(Nc1ccccc1C)C(N)=O` (stereo unspecified), the melting point came out at 195 °C. With `COc1ccc(S(=O)(=O)NC(=N)CCN2CCOC2=O)cc1`, the melting point fell in the range of 115 to 118 °C. Then `COc1ccc([N+](=O)[O-])cc1NC(=O)CCCCC1CCSS1` (stereo unspecified), with 117 °C. Then `CCc1nc2c(C)cc(C)nc2n1Cc1ccc(-c2ccccc2C(=O)NN)cc1`, with 139 to 142 °C; and `CNS(=O)(=O)c1ccc(CCN2CC=C(c3c[nH]c(-c4ccc(F)cc4)c3-c3ccncc3)CC2)cc1OC`, with 245 to 247 °C. Regarding `CO/C=C(/C(=O)OC)c1ccccc1Oc1cccc(N)c1`, the melting point lay in the range of 83 to 85 °C. In turn, `CC(C)(C)SCc1c(-c2ccc(S(C)(=O)=O)cc2)cnn(-c2ccc(F)cc2)c1=O` gave a melting point of 50 to 70 °C. Under `Nc1nccn2c(C3CCC3)nc(-c3cccc(OCc4ccccc4)c3F)c12` stands 88 to 89 °C; under `CCOC(=O)C1=C(C)N(C(=O)OCC)C(C)=C(C(=O)OCC)C1c1ccccc1C(F)(F)F`, 56 to 58 °C. Under `CNC(=O)CC(S)C(CC(C)C)C(=O)NC(Cc1ccc(OC)cc1)C(=O)NC` (stereo unspecified) stands 175 to 190 °C; under `CCCCCCCCCCCCCCCCC(C(=O)OC(C)(C)C)C(=O)c1ccc(C(=O)OC(C)C)c(Cl)c1` (stereo unspecified), 44 °C; under `O=C(C=P(c1ccccc1)(c1ccccc1)c1ccccc1)CCCOc1ccccc1`, 83 to 89 °C. Then `CC(C)C[C@H](NC(=O)OC1CCCCC1)C(=O)N[C@@H](Cc1ccccc1)C(=O)CSCc1ccco1`, with 102 to 103 °C. Regarding `COC(=O)CCc1cc(C)c(O)c(C)c1`, the melting point was 70 to 83 °C.

On to `Cn1c(=O)c(-c2c(Cl)cccc2Cl)cc2cnc(NCCc3ccccn3)nc21`, for which the melting point is 173 to 174 °C.

Molecule `Cc1cc(Sc2ccc3nc(COc4ccc(CC5SC(=O)NC5=O)cc4)n(C)c3n2)cc(C)c1NC(=O)Nc1ccc(C(F)(F)F)cc1` (stereo unspecified) registered a melting point of 193 to 195 °C. `CCCCC(=O)Nc1cccc(-n2nc(CCCC)n(Cc3ccc(-c4ccccc4S(=O)(=O)NC(=O)c4ccccc4Cl)cc3)c2=O)c1` yielded a melting point of 102 to 105 °C. In turn, `CN(C(=O)C(Br)OC(N)=O)c1ccccc1` (stereo unspecified) displayed a melting point of 136 to 138 °C. Then `O=C(O)c1cn(Cc2ccc(OCc3csc(-c4ccccc4)n3)cc2)nc1-c1cccs1`, with 187 to 188 °C; and `COc1cc2ncnc(N3CCC(C4(C)CO4)CC3)c2cc1OC` (stereo unspecified), with 125 to 128 °C; and `CNC(=C[N+](=O)[O-])NCCSCc1nccs1`, with 103 to 104 °C. The molecule `CN1Cc2ccccc2C(O)(Cc2ccc(Cl)cc2F)C1` (stereo unspecified) showed a melting point of 113 to 116 °C. With `c1ccc(-c2nccn3cnnc23)cc1`, the melting point lay within 238 to 239 °C.

In turn, `O=C(NC1C(=O)N(CC23CC4CC(CC(C4)C2)C3)c2ccc(F)cc2N(c2ccccc2)C1=O)Oc1ccccc1` (stereo unspecified) returned a melting point of 156 to 159 °C. `CCc1cc(N(C)Cc2ccc3oc(-c4ccccc4C#N)cc3c2)n2nccc2n1` gave a melting point of 143 °C. `COCCNC(=O)c1cccc(-c2cccc3oc(Cc4ccc(F)c(Cl)c4)cc23)c1`: the melting point was 77 to 78 °C. Molecule `CCCOc1ccc(C2=NN(C(=O)Nc3ccc(C(F)(F)F)cc3)CC2(C)C(=O)OC)cc1` (stereo unspecified) yielded a melting point of 134 to 137 °C. Then `COc1ccc(-c2cccc(C(=O)NCCC#N)c2)c2cc(Cc3cccc(C(F)(F)F)c3)oc12`, with 126 to 127 °C.

Molecule `CCOCc1nc2cnc3cc(-c4ccccc4)ccc3c2n1CCOc1ccccc1` came in with a melting point of 137 to 138 °C. Under `Nc1ccc(F)c(Cl)c1F` stands 58 °C; under `COCCNC(=O)c1n[nH]c2c(=O)[nH]c3cc(Cl)ccc3c(=O)c12`, 287 to 291 °C. On to `O=[N+]([O-])c1ccc(Oc2ccc3cc(Oc4ccc([N+](=O)[O-])c(O)c4)ccc3c2)cc1O`, for which the melting point lay in the range of 244 to 246 °C. Under `CCN(C(C)=O)c1cc([N+](=O)[O-])cc([N+](=O)[O-])c1` stands 98 to 100 °C.

`CCOC(=O)c1ccccc1-n1cnc2c(C)c(C(=O)OCC)c(C)cc2c1=O` showed a melting point of 116 to 117 °C.

`CCC(=O)Oc1ccc(CC(=O)O)cc1C(C)(C)C` showed a melting point of 55.5 to 56.5 °C. Then `CCCCN(C(=O)Nc1ccc(F)cc1F)c1cnc2ccc(Cl)cc2c1-c1ccccc1Cl`, with 63 to 66 °C; and `Cc1ccccc1-c1nc(Cl)c2ccccc2n1`, with 103 to 104 °C; and `Nc1sc2c(c1C(=O)c1ccc3ccccc3c1)CCN(Cc1ccc(Cl)cc1)C2`, with 105 to 108 °C. `Cc1cc(-c2cnn3c(C(F)(F)F)cc(-c4ccc(C(F)(F)F)c(F)c4)nc23)cc(C)n1` came in with a melting point of 245 °C.

`Cc1cc(Nc2cncc(NC3CCCCC3)n2)n[nH]1` yielded a melting point of 194 to 196 °C.

`CCOC(=O)CCC1Cn2c(-c3ccc(OC)cc3)c(C)c3cccc(c32)O1` (stereo unspecified) yielded a melting point of 154 °C. Under `CN(C)CCCNC(=O)c1ccc(-c2cnc3c(c2)N(C(=O)c2ccccc2)CCN3)cc1` stands 94 °C.

Molecule `CN1CCNC(=O)N1c1cc(Cl)cc(Cl)c1` had a melting point of 150 to 151 °C.

In turn, `Cc1nccc(OCc2ccccc2)c1OCc1ccccc1` registered a melting point of 85 to 87 °C. `COc1cc(-c2ccccc2)cc(-c2ccccc2)c1` gave a melting point of 93 to 94 °C.

Regarding `CN(C)Cc1c[nH]c2ccc(Br)cc12`, the melting point was 139 °C.

`CC(C)(C)c1cc(Cl)nc(N)n1` returned a melting point of 87.7 to 88.9 °C. Molecule `CCC(O)(c1ccc(OCCN(C)C)cc1)c1cccc(Cl)c1` (stereo unspecified) returned a melting point of 108 to 109 °C. Under `Nc1c(F)c(Cc2ccc(F)cc2)nc(C=O)c1Cl` stands 109 to 111 °C. For the molecule `O=C(O)Cc1cccc2ccoc12`, the melting point lay in the range of 115 to 118 °C. `CCOC(=O)c1nnc2n1CC(=O)N(C)c1ccc(Cl)cc1-2` registered a melting point of 201 to 202 °C. Molecule `Nc1ccc(Cl)nc1Nc1ccc2c(c1)OCO2` came in with a melting point of 162 to 163 °C. In turn, `Cc1nc2ccc3cnc(N(C)c4cccc([N+](=O)[O-])c4)nc3c2s1` registered a melting point of 209 to 210 °C.
